In ChEMBL document CHEMBL1137531, “Structure-based design and synthesis of (5-arylamino-2H-pyrazol-3-yl)-biphenyl-2',4'-diols as novel and potent human CHK1 inhibitors” (J Med Chem, 2007):
pEC50, pIC50, pKi: −log10 of the molar value. Activity calls are given as the source filed them. The calls are words filed in the database; no cut-off is given here.

Columns and labels:
[1] = molecular target: T1, Serine/threonine-protein kinase Chk1 (Homo sapiens, UniProt O14757); assay: Inhibition of human CHK1 expressed in baculovirus/insect cell system
T1 sequence (O14757 whole entry): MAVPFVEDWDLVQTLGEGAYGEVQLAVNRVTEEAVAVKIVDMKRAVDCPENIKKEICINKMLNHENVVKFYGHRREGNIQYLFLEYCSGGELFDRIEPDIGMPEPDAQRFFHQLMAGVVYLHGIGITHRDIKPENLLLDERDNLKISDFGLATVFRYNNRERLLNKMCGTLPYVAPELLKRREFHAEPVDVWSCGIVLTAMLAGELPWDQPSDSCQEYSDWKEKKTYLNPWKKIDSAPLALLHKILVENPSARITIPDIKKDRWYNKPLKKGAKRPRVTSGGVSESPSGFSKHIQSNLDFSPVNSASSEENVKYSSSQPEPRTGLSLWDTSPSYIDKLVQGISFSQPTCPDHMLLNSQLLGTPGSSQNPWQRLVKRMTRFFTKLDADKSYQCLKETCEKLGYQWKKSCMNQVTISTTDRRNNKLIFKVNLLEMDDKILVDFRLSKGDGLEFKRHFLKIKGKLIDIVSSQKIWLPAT

[2] = molecular target: T1, Serine/threonine-protein kinase Chk1; assay: Activity at human CHK1 in CA46 cells by histone H3 ELISA assay; type: cell-based
[3] = test system: MDA-MB-231; assay: Cell cycle arrest in MDA-MB-231 cells assessed as accumulation at S phase by FACS analysis; type: functional, cell-based; conditions: Homo sapiens
[4] = molecular target: Serine/threonine-protein kinase 26 (Homo sapiens, UniProt Q9P289); assay: Inhibition of MASK
[5] = molecular target: Protein kinase C zeta type (Homo sapiens) (UniProt Q05513); assay: Inhibition of PKCzeta at 1 uM
[6] = molecular target: Serine/threonine-protein kinase Sgk1 (Homo sapiens, UniProt O00141); assay: Inhibition of human SGK
[7] = molecular target: Insulin receptor (Homo sapiens, UniProt P06213); assay: Inhibition of INSR
Sequence of Insulin receptor (P06213 28-758 limits assumed): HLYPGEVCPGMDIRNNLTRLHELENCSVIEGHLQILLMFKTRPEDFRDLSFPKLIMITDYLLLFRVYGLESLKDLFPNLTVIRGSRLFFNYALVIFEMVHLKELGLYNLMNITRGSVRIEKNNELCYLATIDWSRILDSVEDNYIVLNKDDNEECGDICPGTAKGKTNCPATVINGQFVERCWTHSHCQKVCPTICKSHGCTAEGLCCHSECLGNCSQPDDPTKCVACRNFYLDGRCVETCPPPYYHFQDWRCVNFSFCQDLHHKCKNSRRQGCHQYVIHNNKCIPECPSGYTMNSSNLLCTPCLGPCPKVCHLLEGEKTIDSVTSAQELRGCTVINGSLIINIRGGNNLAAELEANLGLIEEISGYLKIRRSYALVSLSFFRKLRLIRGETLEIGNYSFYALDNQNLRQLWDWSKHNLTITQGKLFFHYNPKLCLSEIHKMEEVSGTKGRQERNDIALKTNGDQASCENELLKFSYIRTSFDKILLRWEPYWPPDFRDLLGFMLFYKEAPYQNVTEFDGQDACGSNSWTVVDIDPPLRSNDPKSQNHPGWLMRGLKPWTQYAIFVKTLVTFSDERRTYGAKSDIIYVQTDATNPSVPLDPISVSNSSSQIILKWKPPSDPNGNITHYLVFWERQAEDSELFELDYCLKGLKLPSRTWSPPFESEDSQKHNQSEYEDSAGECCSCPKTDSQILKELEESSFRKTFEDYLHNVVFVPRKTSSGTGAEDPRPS
Sequence of Insulin receptor (P06213 763-1382 limits assumed): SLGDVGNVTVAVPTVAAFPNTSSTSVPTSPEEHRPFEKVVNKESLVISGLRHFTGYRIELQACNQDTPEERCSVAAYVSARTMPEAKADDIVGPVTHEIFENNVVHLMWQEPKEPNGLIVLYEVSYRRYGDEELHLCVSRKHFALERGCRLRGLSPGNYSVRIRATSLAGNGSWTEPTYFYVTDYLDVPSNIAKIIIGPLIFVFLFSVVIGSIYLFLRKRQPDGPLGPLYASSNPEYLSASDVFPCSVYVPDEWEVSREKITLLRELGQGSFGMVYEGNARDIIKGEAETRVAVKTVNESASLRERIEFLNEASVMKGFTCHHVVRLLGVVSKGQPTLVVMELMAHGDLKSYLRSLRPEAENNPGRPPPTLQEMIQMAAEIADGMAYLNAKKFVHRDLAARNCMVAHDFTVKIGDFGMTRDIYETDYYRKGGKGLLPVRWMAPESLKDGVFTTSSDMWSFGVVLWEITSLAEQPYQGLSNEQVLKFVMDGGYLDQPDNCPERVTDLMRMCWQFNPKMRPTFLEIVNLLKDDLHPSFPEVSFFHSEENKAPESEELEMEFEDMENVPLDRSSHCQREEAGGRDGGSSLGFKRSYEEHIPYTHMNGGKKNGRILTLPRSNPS

[8] = molecular target: MAP kinase-activated protein kinase 2 (Mus musculus) (UniProt P49138); assay: Inhibition of mouse MAPKAP2 at 1 uM
[9] = molecular target: Casein kinase II (Homo sapiens) (UniProt P67870+P68400+P19784); assay: Inhibition of CK2 at 1 uM; type: protein-complex assay
[10] = Inhibition of bovine PKA
[11] = molecular target: Aurora kinase A (Homo sapiens, UniProt O14965); assay: Inhibition of Aurora A
[12] = molecular target: Rho-associated protein kinase 1 (Homo sapiens) (UniProt Q13464); assay: Inhibition of ROCK1 activity at 1 uM
[13] = molecular target: T2, RAC-alpha serine/threonine-protein kinase (Homo sapiens, UniProt P31749); assay: Inhibition of AKT1
T2 sequence (P31749 whole entry): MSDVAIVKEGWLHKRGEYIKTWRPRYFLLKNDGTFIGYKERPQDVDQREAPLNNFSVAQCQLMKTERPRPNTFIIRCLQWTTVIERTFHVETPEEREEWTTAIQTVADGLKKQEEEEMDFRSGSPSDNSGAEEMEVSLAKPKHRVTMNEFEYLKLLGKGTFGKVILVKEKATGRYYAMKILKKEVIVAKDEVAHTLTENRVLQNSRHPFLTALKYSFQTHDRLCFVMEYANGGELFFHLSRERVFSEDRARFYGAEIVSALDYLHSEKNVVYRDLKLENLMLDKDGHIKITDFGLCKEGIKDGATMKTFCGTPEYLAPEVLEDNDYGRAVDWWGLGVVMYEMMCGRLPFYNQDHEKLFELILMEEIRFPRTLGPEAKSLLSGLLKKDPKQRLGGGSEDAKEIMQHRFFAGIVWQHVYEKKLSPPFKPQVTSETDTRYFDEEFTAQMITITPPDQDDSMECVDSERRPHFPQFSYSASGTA

[14] = molecular target: Serine/threonine-protein kinase PAK 4 (Homo sapiens, UniProt O96013); assay: Inhibition of PAK4
Sequence of Serine/threonine-protein kinase PAK 4 (O96013 whole entry): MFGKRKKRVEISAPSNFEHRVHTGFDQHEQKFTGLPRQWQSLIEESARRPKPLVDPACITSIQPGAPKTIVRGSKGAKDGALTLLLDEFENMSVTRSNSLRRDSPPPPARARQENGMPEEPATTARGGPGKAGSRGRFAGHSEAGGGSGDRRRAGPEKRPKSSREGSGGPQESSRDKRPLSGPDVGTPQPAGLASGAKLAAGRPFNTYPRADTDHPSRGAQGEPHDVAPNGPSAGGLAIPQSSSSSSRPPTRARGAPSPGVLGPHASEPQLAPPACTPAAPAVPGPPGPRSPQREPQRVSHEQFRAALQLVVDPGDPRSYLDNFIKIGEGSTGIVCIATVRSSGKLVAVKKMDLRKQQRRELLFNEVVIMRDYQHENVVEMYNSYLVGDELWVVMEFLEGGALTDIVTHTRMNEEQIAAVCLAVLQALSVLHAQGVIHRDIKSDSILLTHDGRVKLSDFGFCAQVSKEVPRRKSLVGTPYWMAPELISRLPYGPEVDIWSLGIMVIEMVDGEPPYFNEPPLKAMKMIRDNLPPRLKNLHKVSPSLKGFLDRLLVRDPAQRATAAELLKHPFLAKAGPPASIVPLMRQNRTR

[15] = molecular target: Tyrosine-protein kinase Lck (Homo sapiens, UniProt P06239); assay: Inhibition of human LCK
[16] = molecular target: Serine/threonine-protein kinase pim-2 (Homo sapiens, UniProt Q9P1W9); assay: Inhibition of PIM2
[17] = molecular target: Cyclin-dependent kinase 2 (Homo sapiens) (UniProt P24941); assay: Inhibition of CDK2 at 1 uM
[18] = molecular target: T2, RAC-alpha serine/threonine-protein kinase; assay: Inhibition of AKT1 at 1 uM
[19] = molecular target: Protein kinase C alpha type (Homo sapiens) (UniProt P17252); assay: Inhibition of PKCalpha at 1 uM
[20] = molecular target: Glycogen synthase kinase-3 beta (Homo sapiens) (UniProt P49841); assay: Inhibition of GSK3-beta at 1 uM
[21] = molecular target: Proto-oncogene tyrosine-protein kinase Src (Homo sapiens) (UniProt P12931); assay: Inhibition of SRC at 1 uM
Sequence of Proto-oncogene tyrosine-protein kinase Src (Homo sapiens) (P12931 2-536 limits assumed): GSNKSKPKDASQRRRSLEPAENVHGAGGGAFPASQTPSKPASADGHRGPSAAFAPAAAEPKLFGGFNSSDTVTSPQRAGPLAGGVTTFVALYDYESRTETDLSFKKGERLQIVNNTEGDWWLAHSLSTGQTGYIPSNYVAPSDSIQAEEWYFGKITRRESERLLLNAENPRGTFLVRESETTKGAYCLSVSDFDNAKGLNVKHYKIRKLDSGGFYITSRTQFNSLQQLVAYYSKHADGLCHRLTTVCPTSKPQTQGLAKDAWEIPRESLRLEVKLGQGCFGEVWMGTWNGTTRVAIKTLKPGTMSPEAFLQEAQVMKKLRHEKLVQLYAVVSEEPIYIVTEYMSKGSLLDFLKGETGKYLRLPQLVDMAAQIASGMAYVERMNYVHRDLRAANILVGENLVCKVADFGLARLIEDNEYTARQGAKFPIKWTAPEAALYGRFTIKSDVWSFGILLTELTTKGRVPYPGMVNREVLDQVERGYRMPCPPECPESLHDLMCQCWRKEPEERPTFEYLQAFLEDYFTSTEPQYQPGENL

[22] = molecular target: Inhibitor of nuclear factor kappa-B kinase subunit epsilon (Homo sapiens) (UniProt Q14164); assay: Inhibition of IKKi at 1 uM
[23] = molecular target: Cyclin-dependent kinase 1 (Homo sapiens, UniProt P06493); assay: Inhibition of CDK1 expressed in Sf21 cells
[24] = molecular target: Dual specificity protein kinase CLK1 (Homo sapiens) (UniProt P49759); assay: Inhibition of CLK at 1 uM
[25] = molecular target: 3-phosphoinositide-dependent protein kinase 1 (Homo sapiens) (UniProt O15530); assay: Inhibition of human PDK1 at 1 uM
[26] = molecular target: Mitogen-activated protein kinase 1 (Homo sapiens) (UniProt P28482); assay: Inhibition of human MAPK1 at 1 uM
Sequence of Mitogen-activated protein kinase 1 (Homo sapiens) (P28482 whole entry): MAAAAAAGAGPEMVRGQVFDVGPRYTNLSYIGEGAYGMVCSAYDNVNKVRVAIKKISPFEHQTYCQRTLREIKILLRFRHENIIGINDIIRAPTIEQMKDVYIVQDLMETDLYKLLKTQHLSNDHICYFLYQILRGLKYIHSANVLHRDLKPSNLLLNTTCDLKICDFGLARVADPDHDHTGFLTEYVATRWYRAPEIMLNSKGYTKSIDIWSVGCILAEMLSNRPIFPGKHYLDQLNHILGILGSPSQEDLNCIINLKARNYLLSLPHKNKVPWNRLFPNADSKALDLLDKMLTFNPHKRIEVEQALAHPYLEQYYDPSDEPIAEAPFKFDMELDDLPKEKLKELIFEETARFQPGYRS

[27] = molecular target: Serine/threonine-protein kinase Nek2 (Homo sapiens, UniProt P51955); assay: Inhibition of NEK2
[28] = molecular target: Calcium/calmodulin-dependent protein kinase type 1 (Homo sapiens, UniProt Q14012); assay: Inhibition of CAMK1
[29] = molecular target: Mitogen-activated protein kinase 1 (Homo sapiens) (UniProt P28482); assay: Inhibition of ERK2 at 1 uM
[30] = molecular target: Protein kinase C beta type (Homo sapiens) (UniProt P05771); assay: Inhibition of PKCbeta at 1 uM
[31] = Inhibition of human VEGFR expressed in baculovirus/insect cell system by FLVK-P assay
[32] = molecular target: Inhibitor of nuclear factor kappa-B kinase subunit beta (Homo sapiens) (UniProt O14920); assay: Inhibition of IKK-beta at 1 uM
Sequence of Inhibitor of nuclear factor kappa-B kinase subunit beta (Homo sapiens) (O14920 whole entry): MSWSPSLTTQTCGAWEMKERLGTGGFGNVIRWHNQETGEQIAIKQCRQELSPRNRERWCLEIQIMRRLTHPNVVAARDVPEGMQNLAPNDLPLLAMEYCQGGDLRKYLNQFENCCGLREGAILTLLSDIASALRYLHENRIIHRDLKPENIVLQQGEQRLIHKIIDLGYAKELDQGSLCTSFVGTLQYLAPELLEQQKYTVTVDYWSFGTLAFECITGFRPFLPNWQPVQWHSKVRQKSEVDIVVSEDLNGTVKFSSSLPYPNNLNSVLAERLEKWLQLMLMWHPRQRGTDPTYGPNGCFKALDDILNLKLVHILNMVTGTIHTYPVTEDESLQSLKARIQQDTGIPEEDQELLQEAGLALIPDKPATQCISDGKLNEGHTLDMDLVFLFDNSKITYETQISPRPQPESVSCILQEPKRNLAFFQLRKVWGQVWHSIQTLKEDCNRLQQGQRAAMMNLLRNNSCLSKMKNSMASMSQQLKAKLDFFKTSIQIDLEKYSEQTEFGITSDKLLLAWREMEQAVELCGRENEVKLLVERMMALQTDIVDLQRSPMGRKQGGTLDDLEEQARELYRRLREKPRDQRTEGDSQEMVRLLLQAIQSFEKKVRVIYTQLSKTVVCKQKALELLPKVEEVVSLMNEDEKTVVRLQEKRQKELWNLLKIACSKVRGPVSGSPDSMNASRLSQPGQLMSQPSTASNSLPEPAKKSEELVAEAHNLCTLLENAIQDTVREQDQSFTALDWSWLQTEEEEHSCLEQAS

[33] = molecular target: Serine/threonine-protein kinase Chk2 (Homo sapiens) (UniProt O96017); assay: Inhibition of human CHK2 expressed in Escherichia coli at 1 uM
[34] = molecular target: Tyrosine-protein kinase ABL1 (Homo sapiens, UniProt P00519); assay: Inhibition of ABL
[35] = molecular target: Serine/threonine-protein kinase Chk1 (Homo sapiens) (UniProt O14757); assay: Activity at human CHK1 in CA46 cells by histone H3 ELISA assay at 10 uM; type: cell-based
[36] = molecular target: Serine/threonine-protein kinase Chk1 (Homo sapiens) (UniProt O14757); assay: Activity at human CHK1 in CA46 cells by histone H3 ELISA assay at 1.0 uM; type: cell-based

CCC(C)NCc1ccc(Nc2cc(-c3ccc(-c4ccc(O)cc4O)cc3)n[nH]2)cn1 (stereo not given) gave a pKi [1] of 9.70 and a pEC50 [2] of 6.64.

For Oc1ccc(-c2ccc(-c3cc(Nc4ccccc4)n[nH]3)cc2)c(O)c1, the pKi [1] was 8.92 and the pEC50 [2] was 6.30.

Oc1ccc(-c2ccc(-c3cc(Nc4ccc(CN5CCCCC5)nc4)[nH]n3)cc2)c(O)c1 showed a pKi [1] of 9.52 and a pEC50 [2] of 6.82.

With Nc1ccn([C@@H]2O[C@H](CO)[C@@H](O)C2(F)F)c(=O)n1 the Activity [3] was “Active”.

Work on O=C(Nc1ccc(O)cc1O)c1ccc2c(-c3nc4ccccc4[nH]3)n[nH]c2c1 yielded a pKi [1] of 9.30 and a pEC50 [2] of 6.26.

With CC(C)NCc1ccc(Nc2cc(-c3ccc(-c4ccc(O)cc4O)cc3)[nH]n2)cc1 the pIC50 [4] was 5.73, the inhibition [5] was 18.6% and the pIC50 [6] was 6.54. The pIC50 [7] was under 4.52, the inhibition [8] was 0.7% and the inhibition [9] was 29%. The pIC50 [10] was 6.07, the pIC50 [11] was 5.00 and the inhibition [12] was 13.5%. It also gave a pIC50 [13] of 4.57, a pIC50 [14] of 4.84 and a pIC50 [15] of 5.59. The pIC50 [16] was 5.76, the inhibition [17] was 31% and the inhibition [18] was 7%. For the same molecule, the inhibition [19] was 0%, the inhibition [20] was 30% and the inhibition [21] was 8%. For the same molecule, the inhibition [22] was 26%, the pIC50 [23] was 5.48 and the inhibition [24] was 24%. For the same molecule, the inhibition [25] was 33%, the inhibition [26] was 14.5% and the pIC50 [27] was 5.98. The pIC50 [28] was 5.67, the inhibition [29] was -2% and the inhibition [30] was 16%. For the same molecule, the pIC50 [31] was 5.99, the inhibition [32] was 12.7% and the inhibition [33] was 27.5%. The pIC50 [34] was 5.96.

In the case of O=C(Nc1ccc(O)cc1)c1ccc2c(-c3nc4ccccc4[nH]3)n[nH]c2c1, the Activity [35] was “Active” and the Activity [36] was “inactive”.

Oc1ccc(-c2ccc(-c3cc(Nc4ccc(CNC5CC5)cc4)n[nH]3)cc2)c(O)c1 showed a pKi [1] of 9.42 and a pEC50 [2] of 7.22.

For CN(C)Cc1ccc(Nc2cc(-c3ccc(-c4ccc(O)cc4O)cc3)[nH]n2)cc1, the pKi [1] was 9.72 and the pEC50 [2] was 7.24.

Oc1ccc(-c2ccc(-c3cc(Nc4ccc(CN5CCCC5)cc4)n[nH]3)cc2)c(O)c1 gave a pKi [1] of 9.74 and a pEC50 [2] of 7.39.

For Oc1ccc(-c2ccc(-c3cc(Nc4ccc(CNCC5CC5)nc4)[nH]n3)cc2)c(O)c1, the pKi [1] was 9.10 and the pEC50 [2] was 6.78.
